Laboratory results as given in the NIST ThermoML archive (doi:10.1016/j.jct.2011.02.018).
Numbers after ± are expanded uncertainties.

Experiment: xn = mol fraction of the nth substance listed
Details: 101 kPa, Liquid; for viscosity: Concentric cylinders viscometry; for mass density: Vibrating tube method

COC(C)(C)C [2-methoxy-2-methylpropane] + CCCO
Details | mass density, 293.15 K [kg/m3] | mass density, 298.15 K [kg/m3] | mass density, 303.15 K [kg/m3] | mass density, 308.15 K [kg/m3] | viscosity, 293.15 K [mPa·s] | viscosity, 298.15 K [mPa·s] | viscosity, 303.15 K [mPa·s] | viscosity, 308.15 K [mPa·s]
x1 = 0.0126 | 802.92 ± 0.24 | 798.92 ± 0.24 | 794.86 ± 0.24 | 790.76 ± 0.24 | 2.139 ± 0.088 | 1.886 ± 0.077 | 1.676 ± 0.069 | 1.494 ± 0.061
x1 = 0.0219 | 802.2 ± 0.24 | 798.21 ± 0.24 | 794.13 ± 0.24 | 790.02 ± 0.24 | 2.069 ± 0.085 | 1.832 ± 0.075 | 1.631 ± 0.067 | 1.456 ± 0.059
x1 = 0.0298 | 801.64 ± 0.24 | 797.61 ± 0.24 | 793.53 ± 0.24 | 789.4 ± 0.24 | 2.014 ± 0.082 | 1.79 ± 0.073 | 1.594 ± 0.065 | 1.424 ± 0.058
x1 = 0.0403 | 800.81 ± 0.24 | 796.7 ± 0.24 | 792.61 ± 0.24 | 788.45 ± 0.24 | 1.948 ± 0.08 | 1.735 ± 0.071 | 1.548 ± 0.063 | 1.386 ± 0.057
x1 = 0.05 | 800.12 ± 0.24 | 796.03 ± 0.24 | 791.93 ± 0.24 | 787.77 ± 0.24 | 1.885 ± 0.077 | 1.683 ± 0.069 | 1.502 ± 0.061 | 1.347 ± 0.055
x1 = 0.0599 | 799.4 ± 0.24 | 795.34 ± 0.24 | 791.21 ± 0.24 | 787.04 ± 0.24 | 1.835 ± 0.075 | 1.635 ± 0.067 | 1.462 ± 0.06 | 1.309 ± 0.053
x1 = 0.0699 | 798.72 ± 0.24 | 794.62 ± 0.24 | 790.47 ± 0.24 | 786.28 ± 0.24 | 1.78 ± 0.072 | 1.589 ± 0.065 | 1.429 ± 0.058 | 1.276 ± 0.052
x1 = 0.0798 | 798.25 ± 0.24 | 794.12 ± 0.24 | 789.92 ± 0.24 | 785.72 ± 0.24 | 1.736 ± 0.071 | 1.552 ± 0.063 | 1.391 ± 0.057 | 1.252 ± 0.051
x1 = 0.09 | 797.26 ± 0.24 | 793.05 ± 0.24 | 788.85 ± 0.24 | 784.63 ± 0.24 | 1.67 ± 0.068 | 1.492 ± 0.061 | 1.338 ± 0.055 | 1.203 ± 0.049
x1 = 0.1003 | 796.41 ± 0.24 | 792.28 ± 0.24 | 788.08 ± 0.24 | 783.85 ± 0.24 | 1.627 ± 0.066 | 1.459 ± 0.059 | 1.301 ± 0.053 | 1.181 ± 0.048
x1 = 0.1495 | 793.03 ± 0.24 | 788.85 ± 0.24 | 784.61 ± 0.24 | 780.3 ± 0.24 | 1.412 ± 0.058 | 1.275 ± 0.052 | 1.151 ± 0.047 | 1.042 ± 0.043
x1 = 0.1999 | 789.56 ± 0.24 | 785.28 ± 0.24 | 780.94 ± 0.24 | 776.55 ± 0.24 | 1.234 ± 0.05 | 1.119 ± 0.046 | 1.016 ± 0.042 | 0.9225 ± 0.038
x1 = 0.25 | 786.15 ± 0.24 | 781.8 ± 0.24 | 777.38 ± 0.24 | 772.92 ± 0.24 | 1.089 ± 0.044 | 0.9917 ± 0.041 | 0.9045 ± 0.037 | 0.8231 ± 0.034
x1 = 0.3003 | 782.74 ± 0.24 | 778.33 ± 0.24 | 773.84 ± 0.24 | 769.32 ± 0.24 | 0.9663 ± 0.04 | 0.8841 ± 0.036 | 0.809 ± 0.033 | 0.7398 ± 0.03
x1 = 0.35 | 779.47 ± 0.24 | 774.99 ± 0.24 | 770.45 ± 0.24 | 765.85 ± 0.24 | 0.8694 ± 0.036 | 0.7946 ± 0.032 | 0.7291 ± 0.03 | 0.6694 ± 0.028
x1 = 0.4015 | 776.15 ± 0.24 | 771.6 ± 0.24 | 766.99 ± 0.24 | 762.32 ± 0.24 | 0.7809 ± 0.032 | 0.721 ± 0.029 | 0.6608 ± 0.027 | 0.6082 ± 0.025
x1 = 0.4585 | 772.51 ± 0.24 | 767.88 ± 0.24 | 763.21 ± 0.24 | 758.45 ± 0.24 | 0.6993 ± 0.029 | 0.6452 ± 0.026 | 0.5966 ± 0.025 | 0.5495 ± 0.023
x1 = 0.5002 | 769.91 ± 0.24 | 765.22 ± 0.24 | 760.49 ± 0.24 | 755.68 ± 0.24 | 0.6508 ± 0.027 | 0.6047 ± 0.025 | 0.5568 ± 0.023 | 0.5119 ± 0.021
x1 = 0.5505 | 766.88 ± 0.24 | 762.1 ± 0.24 | 757.3 ± 0.24 | 752.42 ± 0.24 | 0.5953 ± 0.025 | 0.5528 ± 0.023 | 0.5121 ± 0.021 | 0.4715 ± 0.019
x1 = 0.5994 | 763.94 ± 0.24 | 759.14 ± 0.24 | 754.28 ± 0.24 | 749.34 ± 0.24 | 0.5508 ± 0.023 | 0.52 ± 0.022 | 0.4831 ± 0.02 | 0.4457 ± 0.018
x1 = 0.6475 | 761.06 ± 0.24 | 756.21 ± 0.24 | 751.27 ± 0.24 | 746.28 ± 0.24 | 0.5181 ± 0.021 | 0.4813 ± 0.02 | 0.4499 ± 0.019 | 0.4153 ± 0.017
x1 = 0.7026 | 757.85 ± 0.24 | 752.93 ± 0.24 | 747.92 ± 0.24 | 742.86 ± 0.24 | 0.4767 ± 0.02 | 0.4449 ± 0.018 | 0.4145 ± 0.017 | 0.3818 ± 0.016
x1 = 0.7536 | 754.92 ± 0.24 | 749.92 ± 0.24 | 744.86 ± 0.24 | 739.74 ± 0.24 | 0.4509 ± 0.019 | 0.4165 ± 0.017 | 0.3944 ± 0.017 | 0.3602 ± 0.015
x1 = 0.8033 | 752.01 ± 0.24 | 747.01 ± 0.24 | 741.89 ± 0.24 | 736.72 ± 0.24 | 0.4202 ± 0.017 | 0.3922 ± 0.016 | 0.3655 ± 0.015 | 0.3345 ± 0.014
x1 = 0.8471 | 749.51 ± 0.24 | 744.41 ± 0.24 | 739.24 ± 0.24 | 734.04 ± 0.24 | 0.4014 ± 0.017 | 0.375 ± 0.016 | 0.3506 ± 0.015 | 0.3255 ± 0.014
x1 = 0.9007 | 746.4 ± 0.24 | 741.27 ± 0.24 | 736.06 ± 0.24 | 730.79 ± 0.24 | 0.3802 ± 0.016 | 0.3537 ± 0.015 | 0.3303 ± 0.014 | 0.308 ± 0.013
x1 = 0.9107 | 745.77 ± 0.24 | 740.64 ± 0.24 | 735.41 ± 0.24 | 730.13 ± 0.24 | 0.3705 ± 0.016 | 0.3499 ± 0.015 | 0.3277 ± 0.014 | 0.302 ± 0.013
x1 = 0.9185 | 745.32 ± 0.24 | 740.18 ± 0.24 | 734.94 ± 0.24 | 729.65 ± 0.24 | 0.3679 ± 0.015 | 0.3536 ± 0.015 | 0.3317 ± 0.014 | 0.3014 ± 0.013
x1 = 0.9282 | 744.76 ± 0.24 | 739.61 ± 0.24 | 734.37 ± 0.24 | 729.07 ± 0.24 | 0.3645 ± 0.015 | 0.3411 ± 0.014 | 0.3205 ± 0.014 | 0.2934 ± 0.013
x1 = 0.94 | 744.07 ± 0.24 | 738.91 ± 0.24 | 733.65 ± 0.24 | 728.34 ± 0.24 | 0.3597 ± 0.015 | 0.3383 ± 0.014 | 0.3153 ± 0.013 | 0.295 ± 0.013
x1 = 0.9493 | 743.55 ± 0.24 | 738.35 ± 0.24 | 733.09 ± 0.24 | 727.78 ± 0.24 | 0.3573 ± 0.015 | 0.3241 ± 0.014 | 0.3106 ± 0.013 | 0.2879 ± 0.012
x1 = 0.9599 | 742.94 ± 0.24 | 737.74 ± 0.24 | 732.47 ± 0.24 | 727.15 ± 0.24 | 0.3554 ± 0.015 | 0.3246 ± 0.014 | 0.3102 ± 0.013 | 0.2939 ± 0.013
x1 = 0.9698 | 742.37 ± 0.24 | 737.19 ± 0.24 | 731.91 ± 0.24 | 726.58 ± 0.24 | 0.349 ± 0.015 | 0.329 ± 0.014 | 0.3092 ± 0.013 | 0.2843 ± 0.012
x1 = 0.9796 | 741.82 ± 0.24 | 736.64 ± 0.24 | 731.35 ± 0.24 | 726.01 ± 0.24 | 0.3454 ± 0.015 | 0.3252 ± 0.014 | 0.3054 ± 0.013 | 0.2803 ± 0.012
x1 = 0.9882 | 741.32 ± 0.24 | 736.14 ± 0.24 | 730.84 ± 0.24 | 725.49 ± 0.24 | 0.344 ± 0.015 | 0.3242 ± 0.014 | 0.3046 ± 0.013 | 0.2819 ± 0.012
